# Measurements published in the PolyMetriX glass transition set.
# ± gives the standard deviation of the reports.
row,glass transition temperature [°C],SMILES
1,380.00,*Oc1ccc(C(C)(C)c2ccc(Oc3ccc4c(=O)n5c6cc(-c7ccc8c(c7)nc7c9ccc(*)c%10cccc(c(=O)n87)c%109)ccc6nc5c5cccc3c45)cc2)cc1 (repeat unit)
2,270.50 ± 13,*c1cccc(N2C(=O)c3ccc(Oc4ccc5c(c4)C(=O)N(*)C5=O)cc3C2=O)c1 (repeat unit)
3,230.00,*Oc1ccc(NC(=O)CCCCC(=O)Nc2ccc(*)cc2)cc1 (repeat unit)
4,262.00,*c1ccc(Oc2ccc(Oc3ccc(N4C(=O)c5ccc(Oc6ccc(C7(c8ccc(Oc9ccc%10c(c9)C(=O)N(*)C%10=O)cc8)CCCCCCCCCCC7)cc6)cc5C4=O)cc3)c(C(C)(C)C)c2)cc1 (repeat unit)
5,90.00,*CCCCCCCCOc1ccc(/C=C2\CCC/C(=C\c3ccc(O*)cc3)C2=O)cc1 (repeat unit)
6,180.00,*CCOC(=O)c1ccc(-c2ccc(-c3ccc(C(=O)O*)cc3)cc2)cc1 (repeat unit)
7,186.00,*Nc1cc(NC(=O)c2cccc(C(*)=O)c2)cc(C(=O)OCCOC(=O)/C=C/c2ccc(N(C)C)cc2)c1 (repeat unit)
8,340.00,*C(=O)Nc1ccc(-c2sc(-c3ccc(NC(=O)c4ccc5c(c4)C(=O)N(c4ccc(Oc6cccc7c(Oc8ccc(N9C(=O)c%10ccc(*)cc%10C9=O)cc8)cccc67)cc4)C5=O)cc3)c(-c3ccccc3)c2-c2ccccc2)cc1 (repeat unit)
9,45.00,*CCCCCCCCOC(=O)c1ccc(C(=O)O*)cc1 (repeat unit)
10,24.00,*CC(CCCCCCOc1ccc(/N=N/c2ccc(Br)cc2)cc1)COC(=O)CCCCC(=O)O* (repeat unit)
11,232.00,*Oc1ccc(C2(c3ccc(OC(*)=O)cc3C)CC3CC2C2C4CCC(C4)C32)cc1C (repeat unit)
12,219.00,*Oc1ccc(Oc2ccc(NC(=O)c3ccc(-c4ccc(C(=O)Nc5ccc(*)cc5)c(C)c4)cc3C)cc2)cc1 (repeat unit)
13,304.00,*Oc1ccc(NC(=O)c2ccc(NC(=O)c3ccc([Si](C)(C)c4ccc(C(=O)Nc5ccc(C(=O)Nc6ccc(*)cc6)cc5)cc4)cc3)cc2)cc1 (repeat unit)
14,60.00,*Oc1cc(OC(=O)c2ccc(OCC(C)CC)cc2)c(OC(=O)CCCC(*)=O)cc1OC(=O)c1ccc(OCC(C)CC)cc1 (repeat unit)
15,295.00,*c1ccc(Oc2ccc(Oc3ccc(Oc4ccc(-n5c(=O)c6cc7c(=O)n(*)c(=O)c7cc6c5=O)cc4)cc3)cc2)cc1 (repeat unit)
16,126.00,*O[Si](C)(C)C#Cc1ccc(C#C[Si](*)(C)C)cc1 (repeat unit)
17,37.00,*O[Si](*)(C)CCCOc1ccc(C(=O)Oc2ccc(OC)cc2)cc1 (repeat unit)
18,17.00,*CC(Cc1cccc2ccccc12)C[Si](*)(C)C (repeat unit)
19,203.00,*Nc1cccc(CCc2ccc(NC(=O)c3ccc(C(*)=O)cc3)cc2)c1 (repeat unit)
20,242.00,*Sc1ccc(Sc2ccc(Sc3ccc4c(c3)C(=O)N(N3C(=O)c5cccc(*)c5C3=O)C4=O)cc2)cc1 (repeat unit)
21,261.00,*Oc1c(C)cc(C2(c3cc(C)c(OC(=O)c4cccc(C(*)=O)c4)c(C)c3)CCC3CCCCC3C2)cc1C (repeat unit)
22,290.00,*Nc1ccc(C(c2ccc(NC(=O)c3ccc(C(*)=O)cc3)cc2)(C(F)(F)F)C(F)(F)F)cc1 (repeat unit)
23,141.00,*CCCCNC(=O)c1cccc(C(=O)N*)c1 (repeat unit)
24,60.00,*CC(*)(C)C(=O)OCCCCCCN1CCN(c2ccc(/N=N/c3ccc([N+](=O)[O-])cc3)cc2)CC1 (repeat unit)
25,291.00,*Cc1cccc(CNC(=O)C2=C(C(=O)N*)C3C=CC2C3)c1 (repeat unit)

row,glass transition temperature [°C],SMILES
1,30.00,*OC1CCC(OC(=O)OCCCCOC(*)=O)CC1 (repeat unit)
2,246.00,*C(=O)c1ccc2c(c1)C(=O)N(c1ccc(OCCOc3ccc(N4C(=O)c5ccc(*)cc5C4=O)cc3)cc1)C2=O (repeat unit)
3,57.00,*CC(*)(C)C(=O)OCCCCCCCCCCOc1ccc(OC(=O)c2ccc(-c3ccc(OC)cc3)cc2)cc1 (repeat unit)
4,155.00,*CCCCCCN1C(=O)c2ccc(C(c3ccc4c(c3)C(=O)N(*)C4=O)(C(F)(F)F)C(F)(F)F)cc2C1=O (repeat unit)
5,27.00,*Oc1ccc(CC(NC(=O)CCc2ccc(OC(=O)CCCCCCC(*)=O)cc2)C(=O)OCCCCCC)cc1 (repeat unit)
6,127.00,*Oc1ccc(C2(c3ccc(OC(=O)c4cccc(C(*)=O)c4)cc3)CCCCC2)cc1 (repeat unit)
7,55.00,*Oc1ccc(CC(NC(=O)CCc2ccc(OC(=O)COCCOCC(*)=O)cc2)C(=O)OCc2ccccc2)cc1 (repeat unit)
8,293.00,*Nc1ccc(Cc2ccc(NC(=O)c3cc(C(*)=O)cc(N4C(=O)C5C6CCC(C6)C5C4=O)c3)cc2)cc1 (repeat unit)
9,125.00,*Nc1ccc(NC(=O)CCCCCCCCC(*)=O)cc1 (repeat unit)
10,63.00,*Oc1ccc(CC(NC(=O)CCc2ccc(OC(=O)COCCOCC(*)=O)cc2)C(=O)OC)cc1 (repeat unit)
11,120.00,*CCCCCCCCN1C(=O)c2ccc(-c3ccc(-c4ccc5c(c4)C(=O)N(*)C5=O)cc3)cc2C1=O (repeat unit)
12,69.40,*CCCCCCCCOc1c(OC)cc(/C=C/c2ccc(/C=C/c3cc(OC)c(O*)c(OC)c3)cc2)cc1OC (repeat unit)
13,219.00,*c1ccc(Oc2ccc(C(=O)c3cccc(C(=O)c4ccc(Oc5ccc(-c6nc7ccccc7n6-c6ccc(-n7c(*)nc8ccccc87)cc6)cc5)cc4)c3)cc2)cc1 (repeat unit)
14,28.00,*Oc1ccc(CC(NC(=O)Cc2ccc(OC(=O)CCCCC(*)=O)cc2)C(=O)OCCCCCCCC)cc1 (repeat unit)
15,310.00,*Oc1c(C)c(C)c(Oc2ccc(NC(=O)c3ccc(C(=O)Nc4ccc(*)cc4)cc3)cc2)c(C)c1C (repeat unit)
16,134.00,*c1cc(/N=N/c2ccc(OC)cc2)cc(*)c1O (repeat unit)
17,301.00,*c1cccc(-n2nc(-c3ccccc3)c3cc(Oc4ccc5c(-c6ccccc6)nn(*)c(=O)c5c4)ccc3c2=O)c1C#N (repeat unit)
18,202.00,*Oc1ccc(Oc2ccc(C(=O)c3cccc(NC(=O)c4cccc(C(=O)Nc5cccc(C(=O)c6ccc(*)cc6)c5)c4)c3)cc2)cc1 (repeat unit)
19,232.50,*Oc1ccc(S(=O)(=O)c2ccc(Oc3ccc(NC(=O)c4cc(C(=O)Nc5ccc(*)cc5)cc(C(C)(C)C)c4)cc3)cc2)cc1 (repeat unit)
20,272.00,*Nc1ccc(C(c2ccc(NC(=O)c3cccc(C(*)=O)c3)cc2)(C(F)(F)F)C(F)(F)F)cc1 (repeat unit)
21,113.00,*CCCCCCCCN1C(=O)c2ccc(C(=O)c3ccc4c(c3)C(=O)N(*)C4=O)cc2C1=O (repeat unit)
22,34.50,*/C=C/c1cccc(/C=C/[Si](C)(CCC(F)(F)F)c2ccc([Si](*)(C)CCC(F)(F)F)cc2)c1 (repeat unit)
23,17.00,*CCCCCCNC(=O)CCC(C)CC(=O)N* (repeat unit)
24,220.00,*Oc1ccc(Oc2ccc(C(=O)Nc3ccc(Oc4ccc(S(=O)(=O)c5ccc(Oc6ccc(NC(=O)c7ccc(*)cc7)cc6)cc5)cc4)cc3)cc2)cc1 (repeat unit)
25,21.50,*CC(CCCCCCOc1ccc(/N=N/c2ccc(C#N)cc2)cc1)COC(=O)CCCCCCCCCCCCC(=O)O* (repeat unit)

row,SMILES,glass transition temperature [°C]
1,*c1cccc(Oc2ccc(P(=O)(c3ccccc3)c3ccccc3)c(Oc3cccc(N4C(=O)c5ccc(Oc6ccc7c(c6)C(=O)N(*)C7=O)cc5C4=O)c3)c2)c1 (repeat unit),212.00
2,*C(=O)NC1CCCC(*)O1 (repeat unit),145.00
3,*NC(CCC(=O)OC)C(*)=O (repeat unit),0.00
4,*CC(OC)C1C(=O)OC(=O)C1* (repeat unit),153.50
5,*CCCCOc1ccc(/C=C2\CC/C(=C\c3ccc(OCCCCOP(=O)(O*)OCC)c(OC)c3)C2=O)cc1OC (repeat unit),79.00
6,*O[Si](*)(C)CCc1ccc(O)cc1 (repeat unit),39.00
7,*CC(*)c1ccc(C(C)(C)O)cc1 (repeat unit),170.00
8,*[Se]c1c(Cl)c(Cl)c(*)c(Cl)c1Cl (repeat unit),104.00
9,*N=P(N=P(/N=S(/*)Oc1ccc(C(C)(C)C)cc1)(Oc1ccc(-c2ccccc2)cc1)Oc1ccc(-c2ccccc2)cc1)(Oc1ccc(-c2ccccc2)cc1)Oc1ccc(-c2ccccc2)cc1 (repeat unit),54.00
10,*CC(*)c1ccccc1C(=O)OC (repeat unit),130.00
11,*C(=O)NCCNC(=O)c1ncn(C)c1* (repeat unit),189.00
12,*CC(*)CC (repeat unit) [Poly(butylene)],-36.6 ± 12
13,*C(*)C(=O)OCCC (repeat unit),-15.00
14,*Cc1ccc(COP(=O)(/N=N/c2ccc(Oc3ccc(/N=N/P(=O)(O*)OC)cc3)cc2)OC)cc1 (repeat unit),50.00
15,*OP(=O)(Oc1ccc(S(=O)(=O)c2ccc(*)cc2)cc1)OC1CCCCC1 (repeat unit),120.00
16,*CC(*)c1nc(C)nc(C)n1 (repeat unit),70.00
17,*CC(*)(C)C(=O)Oc1cccc(C)c1C (repeat unit),120.00
18,*CC(*)(CC(=O)OC)C(=O)O (repeat unit),159.00
